Reference: US20240150293A1, “SPIROCYCLOHEXANE DERIVATIVES, PHARMACEUTICAL COMPOSITIONS CONTAINING THEM AND THEIR USES AS ANTI-APOPTOTIC INHIBITORS” (LES LABORATOIRES SERVIER, priority 2021, published 2024)

tested on: H929 multiple myeloma tumor line; assay: In vitro cytotoxicity, MTT assay (Example B, Method A); assay type: cell-based; conditions: H929 cells, 48 hours exposure, read-out: C50
Protocol: The cytotoxicity studies were carried out on the H929 multiple myeloma tumor line.
The cells are distributed onto microplates and exposed to the test compounds for 48 hours. The cell viability is then quantified by a colorimetric assay, the Microculture Tetrazolium Assay (Carmichael et al, Cancer Res. 1987, 47, 939-942).
The results are expressed in C50 which means concentration corresponding to […] of effect/inhibition.

Row | Compound | IC50 [nM]
1 | CC(C)C(COc1ccnc2ccsc12)CC1Cc2ccccc2[C@]12CC[C@@](Nc1cccc(Cl)c1)(C(=O)O)CC2 (single isomer, unassigned) [Example 524, (1r,4r)-4-(3-chloroanilino)-2′-(3-methyl-2-{[(thieno[3,2-b]pyridin-7-yl)oxy]methyl}butyl)-2′,3′-dihydrospiro[cyclohexane-1,1′-indene]-4-carboxylic acid] | 30000

same assay, conditions: Homo sapiens, NCI-H929, 48 h, H929 cells, 48 hours exposure, read-out: C50

Row | Compound | IC50 [nM]
2 | CCC1CC(O)c2nccc(OC[C@H](C)C[C@H]3Cc4ccccc4[C@]34CC[C@@](Nc3cccc(Cl)c3)(C(=O)O)CC4)c21 (stereo partly drawn) [Example 624, (1r,2′S,4S)-4-(3-chloroanilino)-2′-{(2R)-3-[(5-ethyl-7-hydroxy-6,7-dihydro-5H-cyclopenta[b]pyridin-4-yl)oxy]-2-methylpropyl}-2′,3′-dihydrospiro[cyclohexane-1,1′-indene]-4-carboxylic acid] | 525
3 | C[C@@H](COc1cccc2ncsc12)C[C@H]1Cc2ccccc2[C@]12CC[C@@](Nc1cccc(Cl)c1)(C(=O)O)CC2 [Example 625, (1r,2′S,4S)-2′-{(2R)-3-[(1,3-benzothiazol-7-yl)oxy]-2-methylpropyl}-4-(3-chloroanilino)-2′,3′-dihydrospiro[cyclohexane-1,1′-indene]-4-carboxylic acid] | 6590

target: Cy5-labelled Mcl1 (amino acids 171-321) C286S protein (UniProtKB Q07820) (Homo sapiens (Human), UniProt Q07820, C286S); assay: Inhibition of Mcl-1 by the fluorescence quenching assay (Example A, Method B); assay type: binding; conditions: not given
Source text: Fluorescence quenching assay measures the change fluorescence intensity of C-terminally Cy5-labelled Mcl1 (amino acids 171-321) C286S protein (UniProtKB® primary accession number Q07820) having an amino acid sequence:
which is linked at the C-terminus to the amino acid X which corresponds to a cysteine labelled on the sulfur with sulpho-Cyanine5 from Lumiprobe GmbH catalogue number 13380, upon binding of a C-terminally labelled peptide derived from PUMA (UniProtKB® primary accession number Q9BXH1) having an amino acid sequence:
which is linked at the C-terminus to the amino acid X′, where X′ is cysteine labelled on the sulfur with TQ5WS from AAT Bioquest catalogue number 2079.
The addition of a compound which binds competitively to the same site as the peptide will result in an increase in the fluorescence intensity of the protein due to displacement of the fluorescence quencher.
An 11-point serial dilution of each compound was prepared in DMSO, the final buffer conditions were 10 mM 4-(2-hydroxyethyl)-1-piperazineethanesulfonic acid [HEPES], 150 mM NaCl, 0.05% Tween 20, pH 7.4 and 5% DMSO. The final protein concentration in the assay was 1 nM with the peptide present at 10, 20 or 400 nM. The experiments were incubated for 2 hours at room temperature before fluorescence intensity was measured on a Biotek SynergyNeo plate reader (Excitation 620 nm, emission 680 nm). The dose response curves were plotted with XL-Fit software using a 4-Parameter Logistic Model (Sigmoidal DoseResponse Model) and the inhibitory concentrations that gave a 50% increase in fluorescence intensity was determined (IC50). The Ki values were determined from the IC50 values according to Cer et al, Nucleic Acids Res, 2009, 37 (WebServer issue): W441-W445. Inhibition constants (Ki) are determined from complete binding inhibition curves (cKi) or from estimated from incomplete binding inhibition curves (eKi) in most cases due to low activity.

Chain of Cy5-labelled Mcl1 (amino acids 171-321) C286S protein (Q07820 171-321 C286S): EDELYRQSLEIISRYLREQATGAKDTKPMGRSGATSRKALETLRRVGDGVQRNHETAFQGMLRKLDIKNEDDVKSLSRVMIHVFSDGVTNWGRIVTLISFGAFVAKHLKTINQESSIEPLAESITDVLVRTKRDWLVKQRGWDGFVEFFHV

Row | Compound | Ki [nM]
4 | CC(CC1Cc2ccccc2[C@]12CC[C@@](Nc1cccc(Cl)c1)(C(=O)O)CC2)C(C)Oc1ccnc2c1CCC2 (single isomer, unassigned) [Example 615, (1r,4r)-4-(3-chloroanilino)-2′-{3-[(6,7-dihydro-5H-cyclopenta[b]pyridin-4-yl)oxy]-2-methylbutyl}-2′,3′-dihydrospiro[cyclohexane-1,1′-indene]-4-carboxylic acid] | 241
5 | C[C@@H](COc1cccc2[nH]ccc12)CC1Cc2ccccc2[C@]12CC[C@@](Nc1cccc(Cl)c1)(C(=O)O)CC2 (stereo partly drawn) [Example 594, (1r,4R)-4-(3-chloroanilino)-2′-{(2R)-3-[(1H-indol-4-yl)oxy]-2-methylpropyl}-2′,3′-dihydrospiro[cyclohexane-1,1′-indene]-4-carboxylic acid] | 44.1
6 | CC[C@@H](COc1ccnc2ccsc12)C[C@H]1Cc2ccccc2[C@]12CC[C@@](Nc1cccc(Cl)c1)(C(=O)O)CC2 [Example 538, (1r,2′S,4S)-4-(3-chloroanilino)-2′-[(2R)-2-{[(thieno[3,2-b]pyridin-7-yl)oxy]methyl}butyl]-2′,3′-dihydrospiro[cyclohexane-1,1′-indene]-4-carboxylic acid] | 9.15
7 | CC[C@@H](COc1ccnc2ccsc12)C[C@@H]1Cc2ccccc2[C@]12CC[C@@](Nc1cccc(Cl)c1)(C(=O)O)CC2 [Example 539, (1r,2′R,4R)-4-(3-chloroanilino)-2′-[(2R)-2-{[(thieno[3,2-b]pyridin-7-yl)oxy]methyl}butyl]-2′,3′-dihydrospiro[cyclohexane-1,1′-indene]-4-carboxylic acid] | 25.4
8 | CC(CC1Cc2ccccc2[C@]12CC[C@@](Nc1cccc(Cl)c1)(C(=O)O)CC2)C(C)Oc1ccnc2c1CCC2 (single isomer, unassigned) [Example 617, (1r,4r)-4-(3-chloroanilino)-2′-{3-[(6,7-dihydro-5H-cyclopenta[b]pyridin-4-yl)oxy]-2-methylbutyl}-2′,3′-dihydrospiro[cyclohexane-1,1′-indene]-4-carboxylic acid] | 93.5
9 | O=C(O)[C@]1(Nc2cccc(Cl)c2)CC[C@@]2(CC1)c1ccccc1CC2CC(CO)COc1ccnc2c1CCC2 (single isomer, unassigned) [Example 500, (1r,4r)-4-(3-chloroanilino)-2′-(2-{[(6,7-dihydro-5H-cyclopenta[b]pyridin-4-yl)oxy]methyl}-3-hydroxypropyl)-2′,3′-dihydrospiro[cyclohexane-1,1′-indene]-4-carboxylic acid] | 15.5
10 | C[C@@H](CNc1ccncc1)C[C@@H]1Cc2ccccc2[C@]12CC[C@@](Nc1cccc(Cl)c1)(C(=O)O)CC2 [Example 574, (1r,2′R,4R)-4-(3-chloroanilino)-2′-{(2R)-2-methyl-3-[(pyridin-4-yl)amino]propyl}-2′,3′-dihydrospiro[cyclohexane-1,1′-indene]-4-carboxylic acid] | 221
11 | O=C(O)[C@]1(Nc2cccc(Cl)c2)CC[C@@]2(CC1)c1ccccc1CC2CC(F)COc1ccnc2c1CCC2 (mixture of isomers) [Example 504, (1r,4r)-4-(3-chloroanilino)-2′-{3-[(6,7-dihydro-5H-cyclopenta[b]pyridin-4-yl)oxy]-2-fluoropropyl}-2′,3′-dihydrospiro[cyclohexane-1,1′-indene]-4-carboxylic acid] | 29.9
12 | O=C(O)[C@]1(Nc2cccc(Cl)c2)CC[C@@]2(CC1)c1ccccc1CC2CC(CO)COc1ccnc2c1CCC2 (single isomer, unassigned) [Example 499, (1r,4r)-4-(3-chloroanilino)-2′-(2-{[(6,7-dihydro-5H-cyclopenta[b]pyridin-4-yl)oxy]methyl}-3-hydroxypropyl)-2′,3′-dihydrospiro[cyclohexane-1,1′-indene]-4-carboxylic acid] | 74.1
13 | C[C@@H](COc1ccnc2c1[C@H](C)CCC2)C[C@H]1Cc2cc3c(cc2[C@]12CC[C@@](Nc1cccc(Cl)c1)(C(=O)OCCCS(=O)(=O)O)CC2)OCO3 [Example 953, 3-({(1r,4S,6′S)-4-(3-chloroanilino)-6′-[(2R)-2-methyl-3-{[(5R)-5-methyl-5,6,7,8-tetrahydroquinolin-4-yl]oxy}propyl]-6′,7′-dihydro-2′H-spiro[cyclohexane-1,5′-indeno[5,6-d][1,3]dioxole]-4-carbonyl}oxy)propane-1-sulfonic acid] | 55.6

same assay, conditions: @ 1 μM, read-out: Mcl-1 inhibition, % at a single concentration

Row | Compound | inhibition at 1 µM [%]
14 | COC(=O)[C@]1(Nc2cccc(Cl)c2)CC[C@@]2(CC1)c1cc3c(cc1C[C@@H]2C[C@@H](C)COc1ccnc2c1[C@H](C)CCC2)OCO3 [Example 839, methyl (1r,4S,6′S)-4-(3-chloroanilino)-6′-[(2R)-2-methyl-3-{[(5R)-5-methyl-5,6,7,8-tetrahydroquinolin-4-yl]oxy}propyl]-6′,7′-dihydro-2′H-spiro[cyclohexane-1,5′-indeno[5,6-d][1,3]dioxole]-4-carboxylate] | 11.1

same assay, conditions: Ki determined from IC50

Row | Compound | Ki [nM]
15 | Cc1cc2c(cc1C)[C@]1(CC[C@@](Nc3cccc(Cl)c3)(C(=O)O)CC1)C(Br)=C2 [Example 140, (1s,4s)-2′-bromo-4-(3-chloroanilino)-5′,6′-dimethylspiro[cyclohexane-1,1′-indene]-4-carboxylic acid] | 57.4
16 | O=C(O)[C@]1(Nc2cccc(Cl)c2)CC[C@]2(CC1)C(CCc1ccccc1)=Cc1ccccc12 [Example 200, (1r,4r)-4-(3-chloroanilino)-2′-(2-phenylethyl)spiro[cyclohexane-1,1′-indene]-4-carboxylic acid] | 139
17 | O=C(O)[C@]1(Nc2cccc(Cl)c2)CC[C@]2(CC1)C(CCOc1ccnc3ccsc13)=Cc1ccccc12 [Example 178, (1r,4r)-4-(3-chloroanilino)-2′-{2-[(thieno[3,2-b]pyridin-7-yl)oxy]ethyl}spiro[cyclohexane-1,1′-indene]-4-carboxylic acid] | 37.1
18 | C[C@@H](COc1ccnc2ccsc12)CN1Cc2ccccc2[C@]12CC[C@@](Nc1cccc(Cl)c1)(C(=O)O)CC2 [Example 38, (1s,4S)-4-(3-chloroanilino)-2′-{(2R)-2-methyl-3-[(thieno[3,2-b]pyridin-7-yl)oxy]propyl}-2′,3′-dihydrospiro[cyclohexane-1,1′-isoindole]-4-carboxylic acid] | 14.4
